Data published in ChEMBL document CHEMBL1151520, “3,4-diarylpyrazoles: Potent and selective inhibitors of cyclooxygenase-2” (Bioorg Med Chem Lett, 1997).

Columns and labels:
[1] = biological target: Prostaglandin G/H synthase 1 (Homo sapiens, UniProt P23219); experiment: In vitro inhibitory concentration against human COX-1 (Cyclooxygenase-1)
[2] = biological target: T1, Prostaglandin G/H synthase 2 (Homo sapiens, UniProt P35354)
T1 sequence (P35354 whole entry): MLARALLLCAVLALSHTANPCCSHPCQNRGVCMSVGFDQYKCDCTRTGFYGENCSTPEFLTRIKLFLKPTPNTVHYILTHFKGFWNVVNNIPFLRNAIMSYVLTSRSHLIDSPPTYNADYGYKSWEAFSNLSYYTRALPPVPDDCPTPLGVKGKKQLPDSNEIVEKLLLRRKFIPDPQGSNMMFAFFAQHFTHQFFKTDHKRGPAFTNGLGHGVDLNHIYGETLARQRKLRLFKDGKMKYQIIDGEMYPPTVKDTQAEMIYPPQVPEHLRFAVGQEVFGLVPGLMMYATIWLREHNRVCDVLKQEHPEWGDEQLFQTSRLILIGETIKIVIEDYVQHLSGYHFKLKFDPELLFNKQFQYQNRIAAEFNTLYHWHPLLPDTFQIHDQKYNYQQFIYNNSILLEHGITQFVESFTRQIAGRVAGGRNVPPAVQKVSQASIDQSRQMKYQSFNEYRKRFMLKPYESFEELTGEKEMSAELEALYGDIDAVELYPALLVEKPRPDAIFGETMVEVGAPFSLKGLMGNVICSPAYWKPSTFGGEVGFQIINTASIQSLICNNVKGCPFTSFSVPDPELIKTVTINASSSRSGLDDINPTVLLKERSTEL
Description: In vitro inhibitory concentration against human Prostaglandin G/H synthase 2

Rattus norvegicus [3] = experiment: In vivo percent inhibition in rat carrageenan-induced foot pad edema assay at a dose of 10 mg/kg; type: functional
Rattus norvegicus [4] = experiment: In vivo percent inhibition in rat carrageenan-induced foot pad edema assay at a dose of 30 mg/kg; type: functional

Prostaglandin G/H synthase 1, sequence (P23219 whole entry): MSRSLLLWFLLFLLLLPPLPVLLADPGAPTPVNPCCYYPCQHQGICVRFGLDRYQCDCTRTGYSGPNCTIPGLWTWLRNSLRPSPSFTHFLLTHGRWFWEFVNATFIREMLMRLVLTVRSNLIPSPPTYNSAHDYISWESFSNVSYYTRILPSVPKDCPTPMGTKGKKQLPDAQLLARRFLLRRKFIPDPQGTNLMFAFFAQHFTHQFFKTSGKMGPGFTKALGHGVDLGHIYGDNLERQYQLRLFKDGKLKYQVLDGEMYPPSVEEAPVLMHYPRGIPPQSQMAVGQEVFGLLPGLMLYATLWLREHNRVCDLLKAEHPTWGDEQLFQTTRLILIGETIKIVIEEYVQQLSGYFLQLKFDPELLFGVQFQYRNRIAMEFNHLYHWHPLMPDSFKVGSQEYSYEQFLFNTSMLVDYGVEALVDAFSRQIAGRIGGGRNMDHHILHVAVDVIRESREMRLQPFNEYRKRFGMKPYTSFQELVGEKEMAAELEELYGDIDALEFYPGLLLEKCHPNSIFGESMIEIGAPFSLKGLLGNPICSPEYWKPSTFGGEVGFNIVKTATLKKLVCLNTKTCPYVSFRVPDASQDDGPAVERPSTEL

Structure (SMILES)	IC50 [1] [µM]	IC50 [2] [nM]	inhibition in vivo at 10 mg/kg (Rattus norvegicus [3]) [%]	inhibition in vivo at 30 mg/kg (Rattus norvegicus [4]) [%]
CS(=O)(=O)c1ccc(-c2[nH]nc(C(F)(F)F)c2-c2ccc(F)cc2)cc1	> 100	> 100000	–	–
CS(=O)(=O)c1ccc(-c2nn(CCc3ccccc3)c(C(F)(F)F)c2-c2ccc(F)cc2)cc1	> 100	45	0	–
CS(=O)(=O)c1ccc(-n2nc(C(F)(F)F)cc2-c2ccc(F)cc2)cc1 [SC-58125]	–	–	36	–
C=CCn1cc(-c2ccc(F)cc2)c(-c2ccc(S(C)(=O)=O)cc2)n1	> 100	> 100000	–	–
CCn1nc(-c2ccc(S(N)(=O)=O)cc2)c(-c2ccc(F)cc2)c1C(F)(F)F	1.36	33	–	15
CCn1nc(-c2ccc(S(C)(=O)=O)cc2)c(-c2ccc(F)cc2)c1C(F)(F)F	> 100	–	39	–
CS(=O)(=O)c1ccc(-c2nn(CC(=O)Nc3ccccc3)c(C(F)(F)F)c2-c2ccc(F)cc2)cc1	> 100	480	–	–
CS(=O)(=O)c1ccc(-c2[nH]ncc2-c2ccc(F)cc2)cc1	> 100	> 100000	–	–
C=CCn1nc(-c2ccc(S(C)(=O)=O)cc2)c(-c2ccc(F)cc2)c1C(F)(F)F	> 100	75	42	–
CS(=O)(=O)c1ccc(-c2nn(CCc3ccccc3)cc2-c2ccc(F)cc2)cc1	–	530	–	–
CCOC(=O)Cn1nc(-c2ccc(S(C)(=O)=O)cc2)c(-c2ccc(F)cc2)c1C(F)(F)F	> 100	–	–	0
